Measurements published in patent US20100036088A1, “Selective poly-N-substituted glycine antibiotics” (priority 2008, published 2010).
Converted amounts (≈) assume the structure as drawn. Where two headings read alike, the source gives them in different places. Numbered stars: 1 amine (or outer) side, 2 acyl side, 3 side chain; on linkers, the order of the positions; unused ones are H or OH. Square brackets hold non-standard residues; d marks the D form. Peptide text beside a SMILES is read from it. X1 = CC(C)[C@H](C)N(CC(=O)[*:2])[*:1]; Nspe = C[C@H](NCC(=O)O)c1ccccc1; Nphe = O=C(O)CNCc1ccccc1; Nlys = NCCCCNCC(=O)O

Assays:
[1] = RP-HPLC elution solvent composition as measure of molecular hydrophobicity; format: physicochemical; details: Table 5; average of three injections; linear 5%-95% acetonitrile/water (0.1% TFA) over 45 minutes, C18 column; measure of hydrophobicity
Description: (§1) An initial set of 15 ampetoid analogs was synthesized to determine whether peptoids are affected by structural and sequence modifications in a manner consistent with AMP activities. The designs for ampetoids in this library were derived from two antibacterial and selective amphipathic dodecamers, 1 and 2. Peptoid 1 [H-(Nlys-Nspe-Nspe)4—NH2] is composed of 2/3 Nspe, the peptoid analog of phenylalanine, and 1/3 Nlys, the peptoid analog of lysine (see FIG. 1 for the structures of representative peptoid monomers and corresponding N-substituents). Peptoid 2 [H-(Nlys-Nssb-Nspe)4—NH2] contains 1/3 isoleucine-like Nssb monomers in place of Nspe. The variant sequences were designed to effect changes in chirality, length, hydrophobicity, charge, and amphipathicity. All of these compounds were tested for antibacterial activity against representative BSL1 Gram-negative (E. coli JM109) and Gram-positive (B. subtilis BR151) bacterial strains. As an initial measure of selectivity, the lytic activity of the peptoids was determined against human erythrocytes. Table 1 summarizes the sequences synthesized, the solvent composition at RP-HPLC elution as a relative measure of molecular hydrophobicity, and antibacterial and hemolytic activities.
Following synthesis, peptoid oligomers can be cleaved from the resin, simultaneously removing the tert-butoxycarbonyl (Boc) protecting group from Nlys residues, by treatment with 10 ml 2,2,2-trifluoroacetic acid (TFA)/triisopropylsilane/H2O (95:2.5:2.5 by volume) for 30 min. The cleavage mixture is then diluted with 25 ml 50% aqueous acetonitrile, frozen, and lyophilized. Dilution and lyophilization is repeated twice more in order to remove excess TFA. Subsequent to cleavage, peptoids are each purified to >97% homogeneity by preparative scale reversed-phase HPLC using a Waters Prep LC 4000 system, with Waters 2487 dual-wavelength UV detection, and gradient elution (solvent A, 0.1 vol % trifluoroacetic acid (TFA) in water; solvent B, 0.1 vol % TFA in acetonitrile) through a Vydac (Hysperia, Calif.) 214TP101550 C4 peptide/protein column (10-15 μm, 300 Å, 5×25 cm). Following prep HPLC, peptoid purities and crude yields were determined from analytical scale HPLC, performed with a Waters 2695 Separations Module with a Waters 2487 dual-wavelength UV detector and gradient elution (solvent A, 0.1 vol % TFA in water; solvent B, 0.1 vol % TFA in acetonitrile) through a Vydac C4 214TP53 peptide/protein column (5 μm, 300 Å, 3.2×250 mm). The precise gradient employed for HPLC depended on the identity and hydrophobicity of the oligomer in question. All analytical HPLC was performed at 0.5 ml/min flow and 58° C. Preparative HPLC was performed at 50 ml/min flow and room temperature.

Enterococcus faecium 106 = format: cell-based; details: for MIC E. faecium 106: Table 7A
Summary of the method: (§2)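 MIC read after 24 hours at 35° C., following CLSI M7-A6 microdilution in MHB with 5×10^5 CFU/ml bacteria added to equal volume of 1:2 serially diluted compound. Enterococcal strains 99 and 106 are vancomycin-resistant; S. aureus NRS119 is a linezolid-resistant isolate.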

[2] = tested on: Pseudomonas aeruginosa ATCC 27853; format: cell-based; details: for MIC P. aeruginosa ATCC 27853: Table 7A
Summary of the method: as §2

[3] = tested on: Serratia marcescens ATCC 13880; format: cell-based
Summary of the method: as §2

[4] = tested on: Staphylococcus aureus NRS119; format: cell-based; details: for MIC S. aureus NRS119: Table 7A, linezolid-resistant
Summary of the method: as §2

[5] = tested on: Staphylococcus aureus NRS100 (COL); format: cell-based; details: for MIC S. aureus NRS100 (COL): Table 7A, MRSA
Summary of the method: as §2

[6] = tested on: Proteus mirabilis ATCC 35659; format: cell-based
Summary of the method: as §2

[7] = tested on: Klebsiella pneumoniae ATCC 33495; format: cell-based; details: for MIC K. pneumoniae ATCC 33495: Table 7A
Summary of the method: as §2

Enterococcus faecalis 99 = format: cell-based; details: for MIC E. faecalis 99: Table 7A
Summary of the method: as §2

[8] = tested on: Staphylococcus aureus NRS120; format: cell-based; details: for MIC S. aureus NRS120: Table 7A, linezolid-resistant
Summary of the method: as §2

[9] = tested on: Staphylococcus aureus VAN1; format: cell-based; details: for MIC S. aureus VAN1: Table 7A, MRSA, vancomycin-resistant
Summary of the method: as §2

[10] = tested on: Staphylococcus aureus VAN2; format: cell-based; details: for MIC S. aureus VAN2: Table 7A, MRSA, vancomycin-resistant
Summary of the method: as §2

[11] = tested on: Enterobacter aerogenes ATCC 35029; format: cell-based; details: for MIC E. aerogenes ATCC 35029: Table 7A
Summary of the method: as §2

E. coli JM109 = format: cell-based
Description: as §1
Antibacterial assays. MICs were determined according to CLSI M7-A6 protocols in a 96-well microtiter plate. In test wells, 50 μL bacterial inoculum (5×10^5 CFU/ml) in Mueller-Hinton broth (MHB) was added to 50 μL peptoid solution in MHB (prepared by 1:2 serial dilutions). Positive controls contained 50 μL inoculum and 50 μL MHB without peptoid. […] MIC values reported were reproducible between three independent experimental replicates, each consisting of two parallel trials. Broad-spectrum antimicrobial susceptibility testing was performed against BSL2 pathogens by Nova Biologicals, Inc. (Conroe, Tex.).

Row | SMILES | HPLC elution (% ACN) [1] | MIC Enterococcus faecium 106 (Enterococcus faecium 106; 106) | MIC E. faecium 106 (Enterococcus faecium 106) | MIC Pseudomonas aeruginosa ATCC 27853 ([2]; ATCC 27853) | MIC P. aeruginosa ATCC 27853 [2] | MIC S. marcescens ATCC 13880 ([3]; ATCC 13880) | MIC Serratia marcescens ATCC 13880 ([3]; ATCC 13880) | MIC Staphylococcus aureus NRS119 ([4]; NRS119) | MIC S. aureus NRS119 [4] | MIC Staphylococcus aureus NRS100 (COL) ([5]; NRS100 (COL)) | MIC S. aureus NRS100 (COL) [5] | MIC P. mirabilis ATCC 35659 ([6]; ATCC 35659) | MIC Proteus mirabilis ATCC 35659 ([6]; ATCC 35659) | MIC Klebsiella pneumoniae ATCC 33495 ([7]; ATCC 33495) | MIC K. pneumoniae ATCC 33495 [7] | MIC Enterococcus faecalis 99 (Enterococcus faecalis 99; 99) | MIC Staphylococcus aureus NRS120 ([8]; NRS120) | MIC Staphylococcus aureus VAN1 ([9]; VAN1) | MIC Staphylococcus aureus VAN2 ([10]; VAN2) | MIC Enterobacter aerogenes ATCC 35029 ([11]; ATCC 35029) | further results
1 | CC(C)[C@H](C)N(CC(=O)N(CC(=O)N(CCCCN)CC(=O)N(CC(=O)N(CC(=O)N(CCCCN)CC(=O)N(CC(=O)N(CC(=O)N(CCCCN)CC(=O)N(CC(=O)N(CC(N)=O)[C@@H](C)c1ccccc1)[C@@H](C)C(C)C)[C@@H](C)c1ccccc1)[C@@H](C)C(C)C)[C@@H](C)c1ccccc1)[C@@H](C)C(C)C)[C@@H](C)c1ccccc1)C(=O)CNCCCCN [1-Nsdp2,5,8,11, H-(Nlys-Nsdp-Nspe)4-NH2] (H-[Nlys][X1][Nspe][Nlys][X1][Nspe][Nlys][X1][Nspe][Nlys][X1][Nspe]-NH2) | 63.8 % ACN | 2.4 µM (≈ 4.04 µg/mL) | 4 µg/mL (≈ 2.38 µM) | 9.5 µM (≈ 16 µg/mL) | 16 µg/mL (≈ 9.51 µM) | >128 µg/mL | >76.0 µM | 9.5 µM (≈ 16 µg/mL) | 16 µg/mL (≈ 9.51 µM) | 4.8 µM (≈ 8.08 µg/mL) | 8 µg/mL (≈ 4.75 µM) | >128 µg/mL | >76.0 µM | 4.8 µM (≈ 8.08 µg/mL) | 8 µg/mL (≈ 4.75 µM) | 38.0 µM (≈ 64 µg/mL) | 9.5 µM (≈ 16 µg/mL) | 4.8 µM (≈ 8.08 µg/mL) | 4.8 µM (≈ 8.08 µg/mL) | 19.0 µM (≈ 32 µg/mL) | MIC E. faecalis 99 (Enterococcus faecalis 99): 64 µg/mL (≈ 38 µM); MIC S. aureus NRS120 [8]: 16 µg/mL (≈ 9.51 µM); MIC S. aureus VAN1 [9]: 8 µg/mL (≈ 4.75 µM); MIC S. aureus VAN2 [10]: 8 µg/mL (≈ 4.75 µM); MIC E. aerogenes ATCC 35029 [11]: 32 µg/mL (≈ 19 µM)
2 | C[C@@H](c1ccccc1)N(CC(N)=O)C(=O)CN(C(=O)CN(CCCCN)C(=O)CN(C(=O)CN(C(=O)CN(CCCCN)C(=O)[C@@H]1CCCN1C(=O)CN(C(=O)CN(CCCCN)C(=O)CN(C(=O)CN(C(=O)CNCCCCN)[C@@H](C)c1ccccc1)[C@@H](C)c1ccccc1)[C@@H](C)c1ccccc1)[C@@H](C)c1ccccc1)[C@@H](C)c1ccccc1)[C@@H](C)c1ccccc1 [1-Pro6, H-Nlys-Nspe-Nspe-Nlys-Nspe-L-Pro-(Nlys-Nspe-Nspe)2-NH2] (H-[Nlys][Nspe][Nspe][Nlys][Nspe]P[Nlys][Nspe][Nspe][Nlys][Nspe][Nspe]-NH2) | – | 2.3 µM (≈ 4.04 µg/mL) | – | 18.2 µM (≈ 31.9 µg/mL) | – | >128 µg/mL | >72.9 µM | 9.1 µM (≈ 16 µg/mL) | – | 4.6 µM (≈ 8.07 µg/mL) | – | >128 µg/mL | >72.9 µM | 9.1 µM (≈ 16 µg/mL) | – | 36.5 µM (≈ 64.1 µg/mL) | 9.1 µM (≈ 16 µg/mL) | 4.6 µM (≈ 8.07 µg/mL) | 4.6 µM (≈ 8.07 µg/mL) | 72.9 µM (≈ 128 µg/mL) | MICs (E. coli JM109; JM109): < 7 µM
3 | C[C@@H](c1ccccc1)N(CC(N)=O)C(=O)CN(C(=O)CN(CCCCN)C(=O)CN(C(=O)CN(C(=O)CN(CCCCN)C(=O)CN(C(=O)CN(C(=O)CN(CCCCN)C(=O)CN(C(=O)CN(C(=O)CNCCCCN)[C@@H](C)c1ccccc1)[C@@H](C)c1ccccc1)[C@@H](C)c1ccccc1)[C@@H](C)c1ccccc1)[C@@H](C)c1ccccc1)[C@@H](C)c1ccccc1)[C@@H](C)c1ccccc1 [compound 1, H-(NLys-Nspe-Nspe)4-NH2] (H-[Nlys][Nspe][Nspe][Nlys][Nspe][Nspe][Nlys][Nspe][Nspe][Nlys][Nspe][Nspe]-NH2) | – | – | – | – | – | – | – | – | – | – | – | – | – | – | – | – | – | – | – | – | E. coli MIC (E. coli JM109; Table 1, E. coli JM109): 3.5 µM; MIC Enterococcus faecium 106 (Enterococcus faecium 106; Table 4, vancomycin resistant): 2.2 µM (≈ 4 µg/mL); MIC Pseudomonas aeruginosa ATCC 27853 ([2]; Table 4, Gram −): 4.4 µM (≈ 8.01 µg/mL); MIC Serratia marcescens ATCC 13880 ([3]; Table 4, Gram −): 70.4 µM (≈ 128 µg/mL); MIC Staphylococcus aureus NRS119 ([4]; Table 4, Gram +): 2.2 µM; MIC Staphylococcus aureus NRS100 (COL) ([5]; Table 4, Gram +): 2.2 µM; MIC Proteus mirabilis ATCC 35659 ([6]; Table 4, Gram −): >70.4 µM; MIC P. mirabilis ATCC 35659 ([6]; Table 7A): >128 µg/mL; MIC Klebsiella pneumoniae ATCC 33495 ([7]; Table 4, Gram −): 8.8 µM (≈ 16 µg/mL); MIC Enterococcus faecalis 99 (Enterococcus faecalis 99; Table 4, vancomycin resistant): 4.4 µM (≈ 8.01 µg/mL); MIC Staphylococcus aureus NRS120 ([8]; Table 4, Gram +): 4.4 µM; MIC Staphylococcus aureus VAN1 ([9]; Table 4, vancomycin resistant): 2.2 µM (≈ 4 µg/mL); MIC Staphylococcus aureus VAN2 ([10]; Table 4, vancomycin resistant): 2.2 µM (≈ 4 µg/mL); MIC Enterobacter aerogenes ATCC 35029 ([11]; Table 4, Gram −): 8.8 µM (≈ 16 µg/mL)
4 | NCCCCNCC(=O)N(CC(=O)N(CC(=O)N(CCCCN)CC(=O)N(CC(=O)N(CC(=O)N(CCCCN)CC(=O)N(CC(=O)N(CC(=O)N(CCCCN)CC(=O)N(CC(=O)N(CC(N)=O)Cc1ccccc1)Cc1ccccc1)Cc1ccccc1)Cc1ccccc1)Cc1ccccc1)Cc1ccccc1)Cc1ccccc1)Cc1ccccc1 [1achiral, H-(Nlys-Npm-Npm)4-NH2] (H-[Nlys][Nphe][Nphe][Nlys][Nphe][Nphe][Nlys][Nphe][Nphe][Nlys][Nphe][Nphe]-NH2) | 59.8 % ACN | 2.3 µM (≈ 3.93 µg/mL) | 4 µg/mL (≈ 2.34 µM) | 9.4 µM (≈ 16 µg/mL) | 16 µg/mL (≈ 9.37 µM) | >128 µg/mL | >75 µM | 9.4 µM (≈ 16 µg/mL) | 16 µg/mL (≈ 9.37 µM) | 4.7 µM (≈ 8.02 µg/mL) | 8 µg/mL (≈ 4.69 µM) | >128 µg/mL | >75 µM | 4.7 µM (≈ 8.02 µg/mL) | 8 µg/mL (≈ 4.69 µM) | 37.5 µM (≈ 64 µg/mL) | 9.4 µM (≈ 16 µg/mL) | 4.7 µM (≈ 8.02 µg/mL) | 4.7 µM (≈ 8.02 µg/mL) | 75.0 µM (≈ 128 µg/mL) | MIC E. faecalis 99 (Enterococcus faecalis 99): 64 µg/mL (≈ 37.5 µM); MIC S. aureus NRS120 [8]: 16 µg/mL (≈ 9.37 µM); MIC S. aureus VAN1 [9]: 8 µg/mL (≈ 4.69 µM); MIC S. aureus VAN2 [10]: 8 µg/mL (≈ 4.69 µM); MIC E. aerogenes ATCC 35029 [11]: 128 µg/mL (≈ 75 µM)
